Test results: patent US6949529B2, “Compositions containing lysophosphotidic acids which inhibit apoptosis and uses thereof” (Sky High, LLC, priority 1997, dated 2005)

Tests used:
[1] = system: C3H/10T½ cells; experiment: C3H/10T½ serum deprivation anti-apoptotic activity assay; assay type: cell-based; settings: for Maximum effect relative to 18:1 LPA: LPA alone, 24 h serum deprivation, 18:1 LPA = 100%; for activity compared with lysophosphatidic acid: summary of Table 3
Description: In order to determine the apoptotic activity of the claimed invention, the following method of analysis was used. The-cell assay is described in detail in U.S. Pat. Nos. 5,637,486, 5,620,888, and 5,681,703, and Tomei et al. (1993) Proc Natl. Acad. Sci. 90:853-857. Briefly, mouse fibroblast C3H/10T½ cells (clone 8) were obtained from ATCC (Rockville, Md.) and were maintained in exponential growth phase in which the cell cycle is randomly distributed and no cells are arrested in G0, and in quiescence. Exponential growth phase was assured by seeding at 2000 cells per 1 ml (5 ml for a 60 mm culture plate) five days prior to the beginning of the experiment. Assays were performed on cells only up to passage 15. At T=0, cultures were transferred to serum-free medium, as an apoptosis stimulus, and seed extracts were added. Controls included 10-7 and 5×10^-8 M 12-O-tetradecanoyl phorbol-13-acetate (TPA) to ensure the responsiveness of the cell culture. The samples were added to serum free medium and sterile filtered prior to addition to the cultures. Assays were performed in triplicate or quadruplicate. Analyses of the cell responses were made between 18 and 28 hours of serum deprivation. Two assays were performed on each cell culture plate consisting of differential cell counts.
1. All non-adherent or loosely adherent cells were removed from the culture dish and counted by appropriate techniques, typically counting by electronic particle counting instrument. These are the apoptotic cells, the serum deprived released cells (SDR), released by the action of cultivation in serum-free medium. Approximately 95% of these released cells are apoptotic as shown by both ultrastructure analysis and DNA fragmentation analysis.
2. The remaining adherent cells (ADH) were exposed to a buffered, typically pH 7.3, balanced salt solution such as Hanks Balanced Salt Solution without calcium and magnesium salts containing 0.05% trypsin and 0.53 mM ethylene diaminetetraacetic acid (EDTA). Each culture was incubated at either room temperature or 37° C. on a rocking platform to ensure uniform distribution of the trypsin reagent over the culture surface. After a standardized period of time, typically 10 minutes, the released cells were removed from each culture dish and measured by the same means as described above, typically electronic particle counting. This ADH cell count is comprised of both trypsin resistant and trypsin sensitive cells as described in U.S. Pat. Nos. 5,637,486, 5,620,888, and 5,681,703.
Anti-apoptotic activity is expressed in the following examples as the calculated concentration of material (μg/ml of media) required to save 50% of the cells released on serum free treatment.
The ability of 18:1-LPA and other LPAs to protect serum-starved cells from apoptotic death was measured using the C3H/10T½ cell assay, performed as described in Example 2. The effect of various compounds on the ability of lysophosphatidic acid to protect serum-starved cells from apoptotic death was also measured. Log phase cells were seeded in 60 mm Petri dishes at 175-350 cells per cm2 and maintained in Basal Medium Eagle (BME) supplemented with 10% Heat Inactivated Fetal Bovine Serum (HIFBS). On day 3 the cells were given fresh media. Treatment began on day 5 when the media containing serum was removed and replaced with the LPA mixture to be tested. After 24 hours of treatment, day 6, serum deprived released (SDR) cells (the apoptotic cell population) and adherent (ADH) cells were separated and counted using an electronic cell counter Coulter Corporation, Hialea, Fla.). SDR cells were counted with the lower threshold setting at 6.3 μm and were defined as the apoptotic cells dying in response to cultivation in serum free media. Approximately 95% of the SDR cells were confirmed to be apoptotic as previously shown by size, ultrastructure and DNA fragmentation analysis. […]

[2] = system: C3H/10T½ cells; experiment: Effect of proteins on anti-apoptotic activity of soy LPA, C3H/10T½ cell assay; assay type: cell-based; settings: for Protein + 10 μg/mL Soy LPA, percent cells saved from apoptosis: 1:10 soy-LPA to protein (weight:weight), 24 h serum deprivation; for enhancement of the anti-apoptotic activity of LPA: protein added together with soy-LPA
Protocol: Soy derived LPA (soy-LPA) (Avanti® Polar Lipids, Inc., Alabaster, Ala.) was stored in an organic solution and was dried immediately prior to assay using a Speed Vac (Savant Instruments, Hicksville, N.Y.). Tested proteins were resuspended at 10 mg/mL in a bicarbonate buffered saline/EDTA solution (50 mM NH4HCO3, 104 mM NaCl, 250 μM EDTA) prior to being added to dried soy-LPA at a 1:10 soy-LPA to protein (weight:weight) ratio. The mixture was then sonicated for 5 minutes using a high power 80 Watt sonication bath (Laboratory Supplies Co., Hicksville, N.Y.). Following sonication, concentrated LPA/protein mixtures were left standing for 15 minutes at room temperature prior to dilution in cell culture assay media.
The effect of various proteins on the ability of LPA to protect serum-starved cells from apoptotic death was measured using the C3H/10T½ cell assay, performed as described in Example 2, above. Log phase cells were seeded in 60 mm Petri dishes at 175-350 cells per cm^2 and maintained in Basal Medium Eagle (BME) supplemented with 10% fetal calf serum (Hyclone, Logan, Utah). At time zero, serum containing media was replaced with sterile filtered BME containing the LPA/protein mixture to be tested. After 24 hours of treatment, serum deprived release (SDR) cells (the apoptotic cell population) and adherent (ADH) cells were separated and counted using an electronic cell counter (Coulter Corporation, Hialea, Fla.). SDR cells were counted with the lower threshold setting at 6.3 μm and were defined as the apoptotic cells dying in response to cultivation in serum-free-media. Approximately 95% of the SDR cells are confirmed to be apoptotic as previously shown by size, ultrastructure and DNA fragmentation analysis. Adherent cells were removed by treatment with a Hanks' balanced salt solution containing 0.05% trypsin and 0.53 mM EDTA and were counted with the lower threshold setting at 11.01 μm. All samples were tested in triplicate and serum-deprived controls (BME only) were assayed at both the beginning and end of each experiment.
The effects of various proteins alone or in combination with LPA are expressed as percent cells saved from apoptosis. When C3H10T½ cells were treated with 10 μg/mL soy LPA without protein, 8.0% of the cells were saved. The degree of protection from apoptosis afforded by protein alone, added to the medium at a concentration of 0.1% (wt/vol.), varied from 0.9% to 27.7% of cells saved from apoptosis. An unusually high percentage of cells were protected from serum-starvation-induced apoptosis by casein. This value may be artificially high, as casein preparations have been known to contain growth factors, including insulin-like growth factors (IGF) IGF1 and IGF2. IGF2 is a mitogen that can mask the serum deprivation-induced apoptotic response in these cells.

[3] = Electrophoresis radiobinding assay on native polyacrylamide gel; assay type: binding; settings: 1 nM labeled 18:1-LPA/45 μg protein, 37° C., 60 minutes
Protocol: Electrophoresis radiobinding assay. Proteins were analyzed on native polyacrylamide gels following incubation with ^3H-labeled 18:1-LPA. ^3H-labeled lysophosphatidic acid (1-oleyl) (DuPont NEN Products, Boston, Mass.) was added to tested proteins at 1 nM labeled 18:1-LPA/45 μg protein. Mixtures were incubated in a bicarbonate buffered saline/EDTA solution at 37° C. for 60 minutes. Incubated samples were mixed with native gel sample buffer (312 mM Tris pH 6.8, 50% glycerol, 0.05% bromophenol blue) and loaded entirely onto an 8% discontinuous native polyacrylamide gel. Following electrophoresis, proteins were fixed into the gels using an aqueous solution consisting of glacial acetic acid, 10% (vol/vol) and methanol 30% (vol./vol.) solution. Fixed gels were then incubated for 60 minutes in autoradiography enhancer (EN^3HANCE, DuPont NEN Products, Boston, Mass.), and dried onto 3M chromatography paper (Whatman, Clifton, N.J.) and exposed to autoradiography film (X-Omat, Kodak, Rochester, N.Y.) for 72 hours at −80° C.

[4] = Size shift assay on Superdex S75 column; assay type: binding; settings: soy LPA with 0.5 μCi ^3H-labeled 18:1-LPA, with test protein
Protocol: Size shift assay. Size analysis of LPA both with and without protein was performed using a Superdex® S75 column (Pharmacia Biotech, Uppsala, Sweden). Soy LPA was combined in a chloroform solution with 0.5 μCi ^3H-labeled 18:1-LPA (DuPont NEN Products, Boston, Mass.), dried under vacuum and resuspended by sonication in a buffered solution (50 mM ammonium bicarbonate, 154 mM sodium chloride, pH 8.0) in the presence or absence of test protein. The ammonium bicarbonate/sodium chloride solution was used as the mobile phase at a flow rate of 1 ml/min. One-minute fractions were collected for 30 minutes following sample injection. Fractions were counted in scintillant solution using a liquid scintillation counter (Beckman Instruments, Irvine, Calif.). Calibration was performed using a standard solution containing purified proteins (BioRad, Hercules, Calif.).

[5] = compounds exhibiting toxicity, Table 3 column Concentration for Max Effect

CCCCCCCCCCCCCCOCC(O)COP(=O)(OC)OC (racemic) [Compound 3, Dimethyl 3-O-tetradecyl-rac-glycero-1-phosphate]
Maximum effect relative to 18:1 LPA [1]: Toxic | lowest concentration at which cytotoxic effects were observed [1, 5]: 30 µM

CCCCCCCCCCCCCCOCC(O)COP(=O)(O)O (racemic) [Compound 4, 3-O-Tetradecyl-rac-glycero-1-phosphate]
Maximum effect relative to 18:1 LPA [1]: Toxic | lowest concentration at which cytotoxic effects were observed ([1]; mouse, 24 h): 10 µM

CCCCCCCC/C=C\CCCCCCCC(=O)OCC(COP(O)(O)=S)OC (racemic) [Compound 48, 3-O-Oleoyl-2-O-methyl-rac-glycero-1-thiophosphate]
activity compared with lysophosphatidic acid [1]: significantly higher than lysophosphatidic acid

CCCCCCCC/C=C\CCCCCCCCOCC(COP(O)(O)=S)OC (racemic) [Compound 66, 3-O-Oleyl-2-O-methyl-rac-glycero-1-thiophosphate]
activity compared with lysophosphatidic acid [1]: significantly higher than lysophosphatidic acid

CCCCCCCC/C=C\CCCCCCCCOC(=O)C(COP(O)(O)=S)OC (racemic) [Compound 78, Oleyl 1-thiophosphoryl-2-O-methyl-rac-glycerate]
activity compared with lysophosphatidic acid [1]: significantly higher than lysophosphatidic acid

CCCCCCCCCCCCCCOCC1CO1 (stereo not shown) [Compound 8, 1-O-Tetradecyl-glycidol]
Maximum effect relative to 18:1 LPA [1]: Toxic | lowest concentration at which cytotoxic effects were observed [1, 5]: 30 µM

CCCCCCCC/C=C\CCCCCCCC(=O)NCCOP(=O)(OC)OC [Compound 59, Dimethyl 2-amino-2-N-oleoyl-ethyl phosphate]
Maximum effect relative to 18:1 LPA [1]: Toxic | lowest concentration at which cytotoxic effects were observed [1, 5]: 30 µM

Acyl Carrier Protein: source E. coli
Protein + 10 μg/mL Soy LPA, percent cells saved from apoptosis [2]: 36.2% | Detectable Acrylamide Gel ^3H LPA Binding (+/−) [3]: did not yield detectable bands

Albumin (Fatty Acid Depleted): fatty acid depleted (FAD) bovine serum albumin (BSA)
Protein + 10 μg/mL Soy LPA, percent cells saved from apoptosis [2]: 58.7% | Detectable Acrylamide Gel ^3H LPA Binding (+/−) [3]: bind to 18:1-LPA | 3H-LPA Size Shift Analysis (+/−) [4]: most of the LPA was bound to BSA

Casein
Protein + 10 μg/mL Soy LPA, percent cells saved from apoptosis [2]: 84.3%

Cytochrome C: source bovine heart
Protein + 10 μg/mL Soy LPA, percent cells saved from apoptosis [2]: 54.6% | 3H-LPA Size Shift Analysis (+/−) [4]: LPA does not bind to this protein

Dimethyl 3-amino-3-N-oleoyl-propyl phosphate [Compound 53]
Maximum effect relative to 18:1 LPA [1]: Toxic | lowest concentration at which cytotoxic effects were observed [1, 5]: 100 µM

Myelin Basic Protein
Protein + 10 μg/mL Soy LPA, percent cells saved from apoptosis [2]: 17.0% | enhancement of the anti-apoptotic activity of LPA [2]: did not enhance

Phosphatidylserine [Phosphatidylserine (PS), reference compound]
toxicity to serum-deprived cells ([1]; PS alone (FIG. 2)): slightly toxic

B1: Myoglobin: source horse heart (protein, UniProt P68082 2-154, looked up)
Myoglobin: GLSDGEWQQVLNVWGKVEADIAGHGQEVLIRLFTGHPETLEKFDKFKHLKTEAEMKASEDLKKHGTVVLTALGGILKKKGHHEAELKPLAQSHATKHKIPIKYLEFISDAIIHVLHSKHPGDFGADAQGAMTKALELFRNDIAAKYKELGFQG
Protein + 10 μg/mL Soy LPA, percent cells saved from apoptosis [2]: 27.8%

B2: Ovalbumin: source chicken egg (protein, UniProt P01012 2-386, looked up)
Ovalbumin: GSIGAASMEFCFDVFKELKVHHANENIFYCPIAIMSALAMVYLGAKDSTRTQINKVVRFDKLPGFGDSIEAQCGTSVNVHSSLRDILNQITKPNDVYSFSLASRLYAEERYPILPEYLQCVKELYRGGLEPINFQTAADQARELINSWVESQTNGIIRNVLQPSSVDSQTAMVLVNAIVFKGLWEKAFKDEDTQAMPFRVTEQESKPVQMMYQIGLFRVASMASEKMKILELPFASGTMSMLVLLPDEVSGLEQLESIINFEKLTEWTSSNVMEERKIKVYLPRMKMEEKYNLTSVLMAMGITDVFSSSANLSGISSAESLKISQAVHAAHAEINEAGREVVGSAEAGVDAASVSEEFRADHPFLFCIKHIATNAVLFFGRCVSP
Protein + 10 μg/mL Soy LPA, percent cells saved from apoptosis [2]: 15.1% | enhancement of the anti-apoptotic activity of LPA [2]: did not enhance | Detectable Acrylamide Gel ^3H LPA Binding (+/−) [3]: detectable band
